Measured values published in PMC7048932, “Examining sterically demanding lysine analogs for histone lysine methyltransferase catalysis” (Scientific Reports, 2020).

Assays:
[1] = system: SETD7; assay: MALDI-TOF MS methylation assay of H3K4 peptides with SETD7; format: biochemical, human; settings: peptide 100 µM, SETD7 2 µM, SAM 200 µM, 1 h, 37 °C
Experimental: (§1) MALDI-MS methyltransferases activity experiments were performed using a Bruker instrument in the reflectron positive mode. For regular methyltransferase standard conditions experiment which carried out in 30 µL total volume, the mixture contains peptide (100 µM), SAM (200 µM), SETD8 or SETD7 (2 µM), in assay buffer 50 mM Tris at optimal pH 8.0. In case of G9a and GLP, similar conditions were used, except (500 µM) of SAM was added to the reaction mixture. Samples were incubated in an Eppendorf vial 1.5 mL using thermomixer for 1 h at 37 °C. A 5 µL aliquot of the solution was mixed with 5 µL of MeOH, after which 5 µL of this mixture was mixed with 5 µL of α-cyano-4-hydroxycinamic acid matrix (CHCA, 5 mg/mL in 125:125 µL acetonitrile/water). The spots were placed on a stainless steel MALDI plate (MS 96 target ground steel BC of Bruker, Germany). The mass corresponding to one monomethylation observed as +14 Da, dimethylation observed as +28 Da and trimethylation observed as +42 Da. The enzymatic activity was determined by taking the peak areas of each methylation state, including all isotopes and adducts, and was annotated using FlexAnalysis software (Bruker Daltonics, Germany). […] Methylated peptide substrates were repeated five times and the unmethylated substrates were triplicated. Sequences of the examined peptides are given in (Supplementary Table 1).

[2] = system: SETD7; assay: Inhibition study of SETD7 (MALDI-TOF MS); format: biochemical, human; settings: peptide 100 µM, SETD7 100 nM, SAM 20 µM, 21-mer H3 peptide 5 µM, 30 min, 37 °C
Experimental: A mixture of histone peptide (0–100 µM final conc.) and SETD7, G9a or GLP (100 nM final conc.) was preincubated for 5 minutes at 37 °C in 18 µL of 50 mM glycine pH 8.8 containing 2.5% glycerol as assay buffer. Then 2 µL of a pre-mixture of SAM (20 µM final conc.) and 21-mer H3 histone peptide (residues 1–21, 5 µM final conc.) was added to afford a final assay mixture (20 µL) and the enzymatic reaction was incubated for an additional 30 minutes at 37 °C before quenching with 20 μL of MeOH. The quenched reaction (1 μL) was mixed with a solution of saturated α-cyano-4-hydroxycinnamic acid (5 μL) and spotted on the MALDI plate for crystallisation. The enzymatic activity was determined by taking the peak areas of each methylation state (including all isotopes and adducts) and is expressed relative to a control reaction in the absence of unnatural histone peptides. Each inhibition experiment was carried out in replicate.

[3] = system: SETD7; assay: MALDI-TOF MS methylation assay of H3K4 peptides with SETD7; format: biochemical, human; settings: peptide 100 µM, SETD7 10 µM, SAM 1 mM, 1 h and 3 h, 37 °C
[4] = molecular target: T1, SETD8 (Homo sapiens, UniProt Q9NQR1); assay: MALDI-TOF MS methylation assay of H4K20 peptides with SETD8; format: biochemical; settings: peptide 100 µM, 37 °C; for SETD8-catalyzed methylation, result in words, increased SETD8/SAM and prolonged incubation: SETD8 10 µM, SAM 1 mM, 1 h and 5 h, MALDI-MS
T1 construct: His6 (N); made in house; host or cells: E. coli BL21 (DE3)pLysS-rosetta
T1 sequence (Q9NQR1 1-393): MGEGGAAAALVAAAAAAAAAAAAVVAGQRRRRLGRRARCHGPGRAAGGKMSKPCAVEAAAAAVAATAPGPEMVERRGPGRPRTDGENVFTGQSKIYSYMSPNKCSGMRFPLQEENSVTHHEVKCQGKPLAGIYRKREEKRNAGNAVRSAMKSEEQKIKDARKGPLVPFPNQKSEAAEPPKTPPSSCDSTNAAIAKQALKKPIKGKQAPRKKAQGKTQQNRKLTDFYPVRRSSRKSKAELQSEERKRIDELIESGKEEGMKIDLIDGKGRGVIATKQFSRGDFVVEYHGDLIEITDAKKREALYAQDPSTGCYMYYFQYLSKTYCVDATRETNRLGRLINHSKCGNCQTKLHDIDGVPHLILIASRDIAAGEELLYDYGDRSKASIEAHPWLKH
Experimental: as §1, with “For regular methyltransferase standard conditions experiment which carried out in 30 µL total volume, the mixture contains peptide (100 µM), SAM (200 µM), SETD8 or SETD7 (2 µM), in assay buffer 50 mM Tris at optimal pH 8.0.” left out

[5] = molecular target: T1, SETD8; assay: Enzyme kinetics of SETD8-catalyzed methylation (MALDI-TOF MS); format: biochemical; settings: MALDI-TOF MS assay
Experimental: To establish the substrate efficiency of lysine- and KCP-containing histone peptides, we carried out enzyme kinetics analysis, employing the MALDI-TOF MS assays. Both enzymes preferentially catalyze methylation of natural histone sequences, however, bulkier KCP-containing peptides still underwent favorable kinetics profiles (Table 1 and Supplementary Fig. 30).
as §1

[6] = molecular target: T1, SETD8; assay: Competition study between H4K20 and analog peptides with SETD8 (MALDI-MS); format: biochemical; settings: SETD8, equimolar H4K20 (100 µM) and H4KCP20 (100 µM), SAM 200 µM, 1 h, 37 °C
From the text: Next, we carried out competition studies between histone peptides that bear lysine and its analogs. In the presence of SETD8, SAM and equimolar amounts of H4K20 and H4KCP20, we observed the formation of both monomethylated products, albeit a comparatively larger degree of monomethylation of H4K20 was found (70% of H4K20me, 40% of H4KCP20me). […] It is also possible that subtle differences in sterics and electronics of H4KCP20 when compared to H4K20 do contribute to observed differences in the degree of methylation in the competition experiment.
Figure S31. MALDI-MS based assay showing ( a) SETD8-catalyzed monomethylation of […]
(b) SETD8-catalyzed methylation of H4K20 (100 µM) in the presence of H4F 3a20 (100 µM) and SAM (200 µM) after 1 h at 37 °C; ( c) SETD8-catalyzed methylation of H4K20 (100 µM) in the presence of H4F 4a20 (100 µM) and SAM (200 µM) after 1 h at 37 °C; ( d) SETD8-catalyzed methylation of H4K20 (100 µM) in the presence of H4A p20 (100 µM) and SAM (200 µM) after 1 h at 37 °C; ( e) SETD8-catalyzed methylation of H4K20 (100 µM) in the presence of […]
(1 picture or pasted object on this page, not shown here)

[7] = SETD8 2 µM, SAM 200 µM, 50 mM Tris pH 8.0, 1 h, MALDI-TOF MS

## ART(F4a4)QTARKSTGGKA [H3F4a4, H3K4 peptide bearing para-aminophenylalanine at position 4]
[1]
  SETD7-catalyzed methylation, result in words: lack of methylation
[2]
  inhibition of SETD7 at 100 µM peptide: 11%

## ART(Kcp4)QTARKSTGGKA [H3KCP4, H3K4 peptide bearing cyclopropyllysine at position 4]
[1]
  SETD7-catalyzed methylation, result in words: only traces
[1]; listed as H3K CP4
  SETD7-catalyzed methylation, result in words: traces of monomethylation
[3]
  SETD7-catalyzed methylation, result in words, high SETD7/SAM: increased amount of the monomethylated H3KCP4me product
[3]; listed as H3K CP4
  SETD7-catalyzed methylation, result in words, high SETD7/SAM: monomethylation

## GGAKRHR(Kcp20)VLRDNIQ [H4KCP20, H4K20 peptide bearing cyclopropyllysine at position 20]
[4]; [7]
  SETD8-catalyzed methylation, result in words: methylation
  monomethylated product formed (H4KCP20me): 60%
[4]
  SETD8-catalyzed methylation, result in words, increased SETD8/SAM and prolonged incubation: almost complete formation of the monomethylated H4KCP20me product
[4]; listed as H4K CP20
  SETD8-catalyzed methylation, result in words, increased SETD8/SAM and prolonged incubation: predominant monomethylation
[5]
  Km: 172 ± 37 µM
  kcat: 0.0113 ± 0.0013 s⁻¹
  kcat/KM: 66 M⁻¹ s⁻¹
[6]
  monomethylated product formed in competition experiment: 40%

## GGAKRHRK^20VLRDNIQ [H4K20, reference compound]
[4]; [7]
  SETD8-catalyzed methylation, result in words: quantitative monomethylation
[6]
  monomethylated product formed in competition experiment: 70%
